Experiments:
[1] = tested on: estrogen receptor-α (ER-α) in MCF-7 cells; assay: Western blot analysis of ER-α level in MCF-7 cells; type: cell-based, human; settings: MCF-7 cells treated for 9 days (FIG. 9)
Protocol: Turning to FIG. 1 there are shown Western blot analyses showing the effect of 1,3cPP on the expression level of ER-α. In the ER-α assay, MCF-7 cells were incubated with 1-100 μM 1,3cPP for up to 14 days. The analysis indicates a relative increase in the level of wild type ER-α receptor (MW 70,000) with either an increase in 1,3cPP concentration or time of incubation. On days 6 and 14, a nearly 2-fold and 3-fold increase were observed, respectively (FIGS. 1A, C, D, F). […] This band could be related to one of deleted exons D3-4 (MW 49,000), D4 (MW 54,000), or D7 (MW 51,000) ER-α variants.
(§1) Breast Cancer Cells. The human breast cancer MCF-7 cell line were obtained from Prof. Hadassa Degani, of Weizmann Institute of Science, Rehovot, Israel. The cells were grown as monolayers in high glucose DMEM supplemented with 6% fetal calf serum and combined antibiotics. Human breast cancer T47D cells, clones 8 (ER^loPR^lo) and 11 (ER^+PR^+) were obtained from Prof Iafa Keydar, Tel-Aviv university and were grown in DMEM supplemented with 10% fetakl calf serum antibiotics. K562 erythroleukemia cells were obtained from Dr. Alfa Peled of Weizmann Institute of Science, Rehovot, Israel. These cells were grown in RPMI 1640 containing 10% fetal calf serum and antibiotics. All lines were grown at 37° C. in the presence of 5% CO2. The absence of Mycoplasma contamination was monitored by a Mycotrim TC test (Irvine Scientific, Santa Ana, Calif.) carried out once every 3 months.
For ER-α protein analysis, MCF-7 and T47D cells were cultured in 60×15 mm petri dishes. From the second day of culture onward, the cells were treated with various concentrations of 1,3cPP for up to 14 days. At the end of the incubation period, the medium was aspirated and the cells were washed 3 times with cold (4° C.) PBS. The cells were then gently scraped off using a rubber policeman in 0.25 ml of lysis buffer composed of 50 mM β-glycerophosphate, 1 mM DTT, 1.5 mM EGTA, 1 mM EDTA, 1% (Octylphenoxy)polyethoxyethanol (IGEPAL, Sigma, St. Louis, Mo.), a nonionic detergent, and a cocktail of protease inhibitors, including 1 mM phenylmethylsulfonyl fluoride (PMSF), 1 mM benzamidine, 10 μg/ml aprotinin, 10 μg/ml leupeptin, and 2 μg/ml pepstanin, as well as 1 mM sodium orthovanadate (Sigma, St. Louis, Mo.) as a phosphatase inhibitor. […] The protein concentration in each sample (1.5-4 mg/ml) was determined using the Coomassie Protein Assay (Pierce, Rockford, Ill.) according to the manufacturer's instructions. […] Bound antibodies were detected by horseradish peroxidase-conjugated goat anti-rabbit IgG, (Transduction Laboratories, Lexington, Ky. using the ECL detection method. Band densities were quantified by densitometry (Biorad model GS-690 Imaging densitometer) using Molecular Analyst software.

[2] = tested on: progesterone receptor (PR) in MCF-7 cells; assay: Western blot analysis of PR level in MCF-7 cells; type: cell-based, human; settings: MCF-7 cells treated for 9 days (FIG. 10)
Protocol: In an analogous manner, a set of experiments was preformed with MCF-7 cells for determining the level of PR upon incubation with varying concentrations of 1,3-cPP for a period of up to 11 days. Similar to the augmentation observed for ER-α, an increase of up to 2.8 and 2.2 fold expression of the wild type PR (MW 98,000), was observed from 10 μM 1,3-cPP and upwards on days 8 and 11, respecively (FIGS. 3A-D).
as §1
For ER-α protein analysis, MCF-7 and T47D cells were cultured in 60×15 mm petri dishes. From the second day of culture onward, the cells were treated with various concentrations of 1,3cPP for up to 14 days. At the end of the incubation period, the medium was aspirated and the cells were washed 3 times with cold (4° C.) PBS. […] The protein concentration in each sample (1.5-4 mg/ml) was determined using the Coomassie Protein Assay (Pierce, Rockford, Ill.) according to the manufacturer's instructions. […] Bound antibodies were detected by horseradish peroxidase-conjugated goat anti-rabbit IgG, (Transduction Laboratories, Lexington, Ky. using the ECL detection method. Band densities were quantified by densitometry (Biorad model GS-690 Imaging densitometer) using Molecular Analyst software.

[3] = tested on: Casein Kinase in MCF-7 cells; assay: Casein Kinase level in MCF-7 cells; type: cell-based, human; settings: MCF-7 cells treated for 9 days (FIG. 11)
K562 cells = tested on: K562 cells
Protocol: It is known from the literature that sodium butyrate derives K562 cells into the erythroid differentiation program (Sutherland et al. 1986). Base on such an observation, the ability of 1,3-cPP alone or in combination with sodium butyrate may trigger the erythroid differentiation program manifested by hemoglobin production.
K562 cells were incubated for 5 days in the presence or absence of 10 or 50 μM 1,3cPP and 1 mM butyric acid as a differentiating agent. Quantitative measurements of hemoglobin production was determined by staining of lysed cells with benzidine-peroxide reagent. The benzidine-peroxide reagent was prepared by dissolving 3,3′,5,5′-tetramethyl benzidine in 90% acetic acid and mixing with an equal volume of freshly prepared 1% hydrogen peroxide. Cell lysate, obtained by hypotonic lysing of 5×10^4 cells in 0.1 ml distilled water, was added to 0.1 ml benzidine reagent and incubated at room temperature for 10 minutes in the dark. Absorbance was measured at 515 nm and was taken as a relative index of the hemoglobin level.

Row | Compound | Estrogen receptor alpha level [1] | progestrone receptor level [2] | Casein Kinase level [3] | hemoglobin synthesis (K562 cells)
1 | NC1(CO)COP(=O)(O)OC1 (stereo not shown) [Example 18, 5-Amino-5-hydroxymethyl-2-oxo-2λ5-[1,3,2]dioxaphosphi-nan-2-ol] | promotion of synthesis | promotion of synthesis | promotion of Casein Kinase levels | –
2 | CCCC(=O)[O-].[Na+] [sodium butyrate, reference compound] | – | – | – | only a small effect
